Data reported in ChEMBL document CHEMBL1629682, “Nitazoxanide inhibits biofilm formation by Staphylococcus epidermidis by blocking accumulation on surfaces” (Antimicrob Agents Chemother, 2010).
In brackets after ≈: the same amount, converted by molar mass. Activity calls are given as the source filed them. No cut-off for these calls is given here.

Tests used:
[1] = test system: Staphylococcus epidermidis; assay: Antimicrobial activity against Staphylococcus epidermidis CAV1005 at 25 ug/ml under aerobic condition by microdilution method; format: functional, organism-based
[2] = test system: Staphylococcus epidermidis; assay: Antimicrobial activity against Staphylococcus epidermidis 9142 by microdilution method; format: functional
[3] = test system: Staphylococcus epidermidis; assay: Antimicrobial activity against Staphylococcus epidermidis 9142 at 25 ug/ml under aerobic condition by microdilution method; format: functional, organism-based
[4] = test system: Staphylococcus epidermidis; assay: Antimicrobial activity against Staphylococcus epidermidis 9142 at 1 to 5 ug/ml by microplate assay; format: functional, organism-based
[5] = test system: Staphylococcus epidermidis; assay: Antimicrobial activity against Staphylococcus epidermidis CAV1005 under aerobic condition by microdilution method; format: functional, organism-based
[6] = Plasma protein binding in healthy volunteers at […], po administered as single dose; format: ADME, organism-based; set-up: route oral; details: human, read-out: PPB (converted)
[7] = test system: Staphylococcus epidermidis; assay: Antimicrobial activity against Staphylococcus epidermidis 5179 by microdilution method; format: functional
[8] = test system: Staphylococcus epidermidis; assay: Antimicrobial activity against Staphylococcus epidermidis 5179 under aerobic condition by microdilution method; format: functional, organism-based
[9] = test system: Staphylococcus epidermidis; assay: Antimicrobial activity against Staphylococcus epidermidis 9142 under aerobic condition by microdilution method; format: functional, organism-based
[10] = test system: Staphylococcus epidermidis; assay: Antimicrobial activity against Staphylococcus epidermidis 5179 at 25 ug/ml under aerobic condition by microdilution method; format: functional, organism-based
[11] = test system: Staphylococcus epidermidis; assay: Antimicrobial activity against Staphylococcus epidermidis CAV1005 by microdilution method; format: functional
[12] = Aqueous solubility of the compound; format: physicochemical
[13] = test system: Staphylococcus epidermidis; assay: (§1) Antimicrobial activity against Staphylococcus epidermidis clinical isolate 5179-R1 derived from PNAG negative, icaA::IS257 mutant 5179 strain produces a proteinaceous biofilm dependent on a truncated 140-kDa isoform of Aap by microdilution method; format: functional, organism-based
[14] = test system: Staphylococcus epidermidis; assay: Antimicrobial activity against Staphylococcus epidermidis 9142 assessed as inhibition of bacterial primary attachment to plastics at 15 ug/ml under shaking condition for 3 hrs by microscopic analysis; format: functional, organism-based
[15] = test system: Staphylococcus epidermidis; assay: Antimicrobial activity against Staphylococcus epidermidis 9142 expressing surface protein Aap assessed as inhibition of bacterial growth at 12.5 ug/ml after 16 hrs by spectrophotometry in presence of 10 uM Zn ions; format: functional, organism-based
[16] = test system: Staphylococcus epidermidis; assay: as §1, with “Aap assessed as inhibition of biofilm formation after 16 hrs” for “Aap”, “crystal violet staining” for “microdilution method”; format: functional, organism-based
[17] = test system: Staphylococcus epidermidis; assay: Antimicrobial activity against biofilm-positive Staphylococcus epidermidis clinical isolate ICS3 by microdilution method; format: functional, organism-based
[18] = test system: Staphylococcus epidermidis; assay: Antimicrobial activity against Staphylococcus epidermidis 9142 assessed as inhibition of biofilm formation after 24 hrs by crystal violet staining; format: functional, organism-based
[19] = test system: Staphylococcus haemolyticus; assay: Antimicrobial activity against Staphylococcus haemolyticus S33208 assessed as inhibition of biofilm formation after 24 hrs by crystal violet staining; format: functional, organism-based
[20] = test system: Staphylococcus epidermidis; assay: Antimicrobial activity against biofilm-positive Staphylococcus epidermidis clinical isolate ICS5 by microdilution method; format: functional, organism-based
[21] = test system: Staphylococcus epidermidis; assay: Antimicrobial activity against Staphylococcus epidermidis 9142 assessed as growth inhibition at 16 ug/ml by microdilution method; format: functional, organism-based
[22] = test system: Staphylococcus epidermidis; assay: Antimicrobial activity against Staphylococcus epidermidis 9142 expressing surface protein Aap assessed as inhibition of biofilm formation at 12.5 ug/ml by spectrophotometry in presence of Zn ions; format: functional, organism-based
[23] = test system: Staphylococcus epidermidis; assay: Antimicrobial activity against biofilm-positive Staphylococcus epidermidis clinical isolate ICS1 by microdilution method; format: functional, organism-based
[24] = test system: Staphylococcus epidermidis; assay: Antimicrobial activity against biofilm-positive Staphylococcus epidermidis clinical isolate ICS4 assessed as inhibition of biofilm formation after 16 hrs by crystal violet staining; format: functional, organism-based
[25] = test system: Staphylococcus epidermidis; assay: Antimicrobial activity against Staphylococcus epidermidis 9142 assessed as inhibition of bacterial attachment to plastics at 15 ug/ml under static condition for 3 hrs by microscopic analysis; format: functional, organism-based
[26] = test system: Staphylococcus epidermidis; assay: Antimicrobial activity against biofilm-positive Staphylococcus epidermidis clinical isolate ICS2 by microdilution method; format: functional, organism-based
[27] = test system: Staphylococcus epidermidis; assay: Antimicrobial activity against Staphylococcus epidermidis CAV1005 under microaeration condition at 10 ug/ml by microdilution method; format: functional, organism-based
[28] = test system: Staphylococcus epidermidis; assay: Antimicrobial activity against Staphylococcus epidermidis CAV1005 assessed as inhibition of biofilm formation after 24 hrs by microdilution method; format: functional; details: CAV1005, 24 h
[29] = test system: Staphylococcus epidermidis; assay: Antimicrobial activity against Staphylococcus epidermidis 9142 expressing surface protein Aap assessed as inhibition of bacterial growth at 12.5 ug/ml by spectrophotometry in presence of 10 uM Zn ions; format: functional, organism-based
[30] = test system: Staphylococcus epidermidis; assay: Antimicrobial activity against Staphylococcus epidermidis 9142 assessed as inhibition of bacterial accumulation on catheters after 24 hrs by catheter adherence model; format: functional, organism-based
[31] = test system: Staphylococcus epidermidis; assay: Antimicrobial activity against Staphylococcus epidermidis 9142 expressing surface protein Aap by microdilution method in presence of 10 uM Zn ions; format: functional
[32] = test system: Staphylococcus epidermidis; assay: Antimicrobial activity against Staphylococcus epidermidis 9142 expressing surface protein Aap assessed as inhibition of biofilm formation at 12.5 ug/ml by spectrophotometry in presence of calcium ions; format: functional, organism-based
[33] = test system: Staphylococcus hominis; assay: Antimicrobial activity against Staphylococcus hominis F13532 assessed as inhibition of biofilm formation after 24 hrs by microdilution method; format: functional; details: F13532, 24 h
[34] = test system: Staphylococcus epidermidis; assay: Antimicrobial activity against Staphylococcus epidermidis 9142 assessed as inhibition of bacterial primary attachment to plastics during 3 hrs at 15 ug/ml by microscopic analysis; format: functional, organism-based
[35] = test system: Staphylococcus epidermidis; assay: Antimicrobial activity against biofilm-positive Staphylococcus epidermidis clinical isolate ICS4 by microdilution method; format: functional, organism-based
[36] = test system: Staphylococcus epidermidis; assay: Antimicrobial activity against Staphylococcus epidermidis 9142 expressing surface protein Aap assessed as inhibition of biofilm formation at 12.5 ug/ml by spectrophotometry in presence of EDTA; format: functional, organism-based
[37] = test system: Staphylococcus epidermidis; assay: Antimicrobial activity against biofilm-positive Staphylococcus epidermidis clinical isolate ICS3 assessed as inhibition of biofilm formation after 16 hrs by crystal violet staining; format: functional, organism-based
[38] = test system: Staphylococcus epidermidis; assay: Antimicrobial activity against Staphylococcus epidermidis 9142 at 25 ug/ml by microdilution method; format: functional, organism-based
[39] = test system: Staphylococcus epidermidis; assay: Antimicrobial activity against Staphylococcus epidermidis 9142 assessed as inhibition of bacterial attachment to plastics at 10 ug/ml under static condition for 3 hrs by microscopic analysis; format: functional, organism-based
[40] = test system: Staphylococcus epidermidis; assay: Antimicrobial activity against Staphylococcus epidermidis 9142 expressing surface protein Aap up to 10 hrs by microdilution method in presence of 10 uM Zn ions; format: functional, organism-based
[41] = test system: Staphylococcus haemolyticus; assay: Antimicrobial activity against Staphylococcus haemolyticus S33208 assessed as growth inhibition at 16 ug/ml by microdilution method; format: functional, organism-based
[42] = test system: Staphylococcus epidermidis; assay: Antimicrobial activity against Staphylococcus epidermidis 9142 assessed as growth inhibition at 8 ug/ml by microdilution method; format: functional, organism-based
[43] = test system: Staphylococcus epidermidis; assay: Antimicrobial activity against Staphylococcus epidermidis 9142 assessed as inhibition of bacterial accumulation on catheters treated for 12 hrs post biofilm formation measured after 24 hrs by crystal voilet staining; format: functional, organism-based
[44] = test system: Staphylococcus epidermidis; assay: Antimicrobial activity against biofilm-positive Staphylococcus epidermidis clinical isolate ICS1 assessed as inhibition of biofilm formation after 16 hrs by crystal violet staining; format: functional, organism-based
[45] = test system: Staphylococcus haemolyticus; assay: Antimicrobial activity against Staphylococcus haemolyticus S33208 assessed as growth inhibition at 8 ug/ml by microdilution method; format: functional, organism-based
[46] = test system: Staphylococcus epidermidis; assay: Antimicrobial activity against Staphylococcus epidermidis 5179 under microaeration condition at 10 ug/ml by microdilution method; format: functional, organism-based
[47] = test system: Staphylococcus epidermidis; assay: Antimicrobial activity against Staphylococcus epidermidis 9142 assessed as inhibition of bacterial attachment to plastics at 15 ug/ml under static condition for 3 hrs by microscopic analysis in presence of 10 uM Zn ions; format: functional, organism-based
[48] = test system: Staphylococcus epidermidis; assay: Antimicrobial activity against biofilm-positive Staphylococcus epidermidis clinical isolate ICS5 assessed as inhibition of biofilm formation after 16 hrs by crystal violet staining; format: functional, organism-based
[49] = test system: Staphylococcus epidermidis; assay: Antimicrobial activity against Staphylococcus epidermidis 9142 under microaeration condition at 10 ug/ml by microdilution method; format: functional, organism-based
[50] = test system: Staphylococcus epidermidis; assay: Antimicrobial activity against biofilm-positive Staphylococcus epidermidis clinical isolate ICS2 assessed as inhibition of biofilm formation after 16 hrs by crystal violet staining; format: functional, organism-based
[51] = test system: Staphylococcus epidermidis; assay: Antimicrobial activity against Staphylococcus epidermidis 9142 expressing surface protein Aap assessed as inhibition of biofilm formation at 12.5 ug/ml by spectrophotometry in presence of magnesium ions; format: functional, organism-based

O=C(Nc1ncc([N+](=O)[O-])s1)c1ccccc1O [TIZOXANIDE]
Activity [1]: Active
MIC [2]: 8 µg/mL (≈ 30.2 µM)
Activity [3]: Active
Activity [4]: Active
Activity [5]: Dose-dependent effect
fraction unbound [6]: 0.025
MIC [7]: 8 µg/mL (≈ 30.2 µM)
Activity [8]: Dose-dependent effect
Activity [9]: Dose-dependent effect
Activity [10]: Active
MIC [11]: 8 µg/mL (≈ 30.2 µM)

Cl.NCCOc1ccccc1C(=O)Nc1ncc([N+](=O)[O-])s1
solubility [12]: 400 µg/mL

CC(=O)Oc1ccccc1C(=O)Nc1ncc([N+](=O)[O-])s1 [NITAZOXANIDE]
IC50 [13]: 1 µg/mL (≈ 3.25 µM)
MIC [13]: 16 µg/mL (≈ 52.1 µM)
Activity [14]: Active
Activity [15]: inactive
inhibition [16]: Active
IC50 [17]: 1 µg/mL (≈ 3.25 µM)
MIC [17]: 16 µg/mL (≈ 52.1 µM)
Activity [1]: Active
Activity [18]: Dose-dependent effect
MIC [2]: 8 µg/mL (≈ 26 µM)
Activity [19]: Dose-dependent effect
IC50 [20]: 1 µg/mL (≈ 3.25 µM)
MIC [20]: 16 µg/mL (≈ 52.1 µM)
Activity [21]: Active
Activity [3]: Active
Activity [22]: inactive
IC50 [23]: 1 µg/mL (≈ 3.25 µM)
MIC [23]: 16 µg/mL (≈ 52.1 µM)
inhibition [24]: Active
Activity [25]: Active
IC50 [26]: 1 µg/mL (≈ 3.25 µM)
MIC [26]: 16 µg/mL (≈ 52.1 µM)
Activity [27]: Active
MIC [28]: > 32 µg/mL
Activity [29]: Active
Activity [30]: Dose-dependent effect
MIC [31]: 16 µg/mL
Activity [32]: Active
MIC [33]: > 32 µg/mL
Activity [4]: Active
Activity [5]: Dose-dependent effect
Activity [34]: Active
IC50 [35]: 1 µg/mL (≈ 3.25 µM)
MIC [35]: 16 µg/mL (≈ 52.1 µM)
Activity [36]: inactive
inhibition [37]: Active
MIC [7]: 8 µg/mL (≈ 26 µM)
Activity [38]: Active
Activity [39]: Active
Activity [40]: Active
Activity [41]: Active
Activity [42]: Active
Activity [8]: Dose-dependent effect
Activity [43]: inactive
Activity [9]: Dose-dependent effect
inhibition [44]: Active
Activity [45]: Active
Activity [46]: Active
Activity [47]: Active
inhibition [48]: Active
Activity [49]: Active
inhibition [50]: Active
Activity [51]: Active
Activity [10]: Active
MIC [11]: 8 µg/mL (≈ 26 µM)
